Laboratory results reported in patent US7754440B2 (priority 2001, dated 2010).
“Also recorded” adds a separate entry of the source.

Assays:
Format in all cases: cell-based
Nav1.3 sodium channel [1] = biological target: T1, Nav1.3 sodium channel (Homo sapiens, UniProt Q9NY46); assay: cell-based; conditions: for IC50: read-out: IC50 obtained using patch-clamp
Nav1.3 sodium channel [2] = biological target: T1, Nav1.3 sodium channel; assay: Na+ depletion/repletion persistent current assay with single-wavelength membrane potential dye on FLIPR-Tetra
HEK-Nav 1.3 cells = assay: Counter-screen: K+-dependent depolarization (VIPR FRET); conditions: tetracaine 10 μM; K+ final 80 mM; FIG. 10
Nav1.3 sodium channel [3] = biological target: T1, Nav1.3 sodium channel; assay: Persistent sodium current screening assay using FRET dyes on VIPR (Na+-dependent depolarization); conditions: tetracaine 10 μM; HEK-Nav 1.3 cells; FIG. 10

T1 sequence (Q9NY46 whole entry): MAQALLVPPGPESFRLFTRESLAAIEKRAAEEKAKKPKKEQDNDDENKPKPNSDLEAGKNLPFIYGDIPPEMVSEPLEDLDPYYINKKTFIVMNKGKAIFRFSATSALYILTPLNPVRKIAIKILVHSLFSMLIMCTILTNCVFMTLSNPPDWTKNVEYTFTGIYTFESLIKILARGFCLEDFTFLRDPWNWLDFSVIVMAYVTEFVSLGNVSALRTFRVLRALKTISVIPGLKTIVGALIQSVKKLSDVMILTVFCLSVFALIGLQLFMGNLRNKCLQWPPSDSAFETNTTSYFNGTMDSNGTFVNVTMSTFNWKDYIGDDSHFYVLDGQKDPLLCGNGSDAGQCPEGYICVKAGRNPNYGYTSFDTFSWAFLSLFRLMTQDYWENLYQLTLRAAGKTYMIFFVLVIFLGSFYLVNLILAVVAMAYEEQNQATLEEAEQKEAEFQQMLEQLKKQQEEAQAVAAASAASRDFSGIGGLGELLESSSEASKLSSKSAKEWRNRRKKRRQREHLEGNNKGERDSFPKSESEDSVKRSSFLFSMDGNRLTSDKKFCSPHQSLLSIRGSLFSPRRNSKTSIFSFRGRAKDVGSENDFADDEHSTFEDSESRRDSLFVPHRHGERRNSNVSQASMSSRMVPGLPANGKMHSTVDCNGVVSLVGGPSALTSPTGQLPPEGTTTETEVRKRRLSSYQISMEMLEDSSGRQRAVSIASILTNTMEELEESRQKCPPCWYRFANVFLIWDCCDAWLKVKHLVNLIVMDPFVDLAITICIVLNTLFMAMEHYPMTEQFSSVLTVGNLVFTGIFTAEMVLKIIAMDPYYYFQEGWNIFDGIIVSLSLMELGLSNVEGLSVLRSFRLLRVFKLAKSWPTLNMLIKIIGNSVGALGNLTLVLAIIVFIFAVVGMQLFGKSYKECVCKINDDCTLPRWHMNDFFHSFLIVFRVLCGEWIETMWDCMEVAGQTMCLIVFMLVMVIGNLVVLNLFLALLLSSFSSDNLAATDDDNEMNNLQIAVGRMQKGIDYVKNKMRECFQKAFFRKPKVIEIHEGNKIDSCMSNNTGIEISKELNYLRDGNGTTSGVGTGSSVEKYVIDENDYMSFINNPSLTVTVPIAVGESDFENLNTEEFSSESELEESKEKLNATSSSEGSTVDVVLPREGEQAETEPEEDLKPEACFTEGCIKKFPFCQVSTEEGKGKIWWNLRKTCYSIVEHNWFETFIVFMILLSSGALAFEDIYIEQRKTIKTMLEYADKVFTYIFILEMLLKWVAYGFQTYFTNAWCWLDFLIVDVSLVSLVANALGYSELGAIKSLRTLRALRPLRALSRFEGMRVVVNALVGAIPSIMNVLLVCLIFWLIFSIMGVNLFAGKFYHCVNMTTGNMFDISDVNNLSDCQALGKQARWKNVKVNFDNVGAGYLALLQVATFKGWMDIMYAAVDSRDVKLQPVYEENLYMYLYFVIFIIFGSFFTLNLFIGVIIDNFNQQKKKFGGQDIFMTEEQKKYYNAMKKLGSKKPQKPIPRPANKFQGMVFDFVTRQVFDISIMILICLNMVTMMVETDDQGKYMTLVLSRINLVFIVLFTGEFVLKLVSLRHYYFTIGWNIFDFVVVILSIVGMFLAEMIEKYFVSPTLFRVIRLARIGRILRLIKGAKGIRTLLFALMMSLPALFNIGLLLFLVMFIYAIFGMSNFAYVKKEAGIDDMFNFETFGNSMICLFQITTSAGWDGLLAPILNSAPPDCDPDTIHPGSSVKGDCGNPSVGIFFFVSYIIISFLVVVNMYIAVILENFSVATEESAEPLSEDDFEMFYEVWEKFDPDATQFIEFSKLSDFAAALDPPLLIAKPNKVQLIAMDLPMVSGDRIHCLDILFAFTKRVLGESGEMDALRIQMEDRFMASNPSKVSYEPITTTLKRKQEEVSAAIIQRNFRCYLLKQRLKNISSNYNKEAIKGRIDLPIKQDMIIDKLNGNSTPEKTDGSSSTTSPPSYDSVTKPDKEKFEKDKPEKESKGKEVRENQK

## CCN(CC)CC(=O)Nc1c(C)cccc1C [Lidocaine]
Nav1.3 sodium channel [1]; comparison values for the persistent current assay
  IC50: 90 µM
Nav1.3 sodium channel [2]
  IC50: 32 µM

## CCCCNc1ccc(C(=O)OCCN(C)C)cc1 [Tetracaine]
HEK-Nav 1.3 cells
  K+-dependent change in Rf/Ri (K+-dependent depolarization): not
Nav1.3 sodium channel [3]
  Na+-dependent change in Rf/Ri (Na+-dependent depolarization): inhibited

## TTX
Nav1.3 sodium channel [1]
  Block of persistent current: completely blocked
  Block of transient current: completely blocked
  IC50: 0.005 µM
Nav1.3 sodium channel [2]
  Na+ channel dependent component of the fluorescence response: blocked; also recorded: the initial response is lost
Nav1.3 sodium channel [2]; read-out: IC50 persistent sodium current, FLIPR-Tetra assay
  IC50: 0.005 µM
